The values below come from PMC10680097 (Biochemistry, 2023).

One may read the Km as the substrate concentration at which the rate is half of its maximum.

Test [1] deals with C4-reductase (HS:51/HS:53). Nature of the test: NADPH oxidation at […] nm. In kind it is biochemical, Campylobacter jejuni. The note with it: apparent; 300 μM NADPH, 50 mM HEPES pH 7.5, 30 °C; substrate made with Cj1427.
In the next test the target is T1, C3/C5-epimerase (HS:42) (Campylobacter jejuni, UniProt F2X7E5).
T1 construct: gene HS42.11
T1 sequence (F2X7E5 entry or part of it): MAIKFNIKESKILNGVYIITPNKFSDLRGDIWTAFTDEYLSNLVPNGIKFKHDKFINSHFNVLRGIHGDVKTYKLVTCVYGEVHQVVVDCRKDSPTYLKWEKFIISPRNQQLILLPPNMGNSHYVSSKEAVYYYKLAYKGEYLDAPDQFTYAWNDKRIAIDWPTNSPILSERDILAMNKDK
Kind of test: coupled turnover of purified […] to […], D2O exchange at C3 and C5, ESI-MS. The format is biochemical. Particulars: 5.0 mM NADPH and HS:42 C4-reductase, pH 8.0, 40 h.

Structures are written as SMILES.

For `Nc1nc2c(ncn2[C@@H]2O[C@H](COP(=O)(O)OP(=O)(O)O[C@H]3O[C@H]([C@H](O)CO)C(=O)[C@H](O)[C@@H]3O)[C@@H](O)[C@H]2O)c(=O)[nH]1` [compound 22, GDP-D-glycero-4-keto-α-D-lyxo-heptose], in test [1], the Michaelis constant (Km) was 53 ± 6 µM. For the same compound, the “coupled turnover of purified 22 to 30, D2O exchange at C3 and C5, ESI-MS” value on C3/C5-epimerase (HS:42) is on record as “Epimerases from the same serotype of each C4-reductase were used for each reaction”.
